Source: patent US20070179060A1, “6-(Poly-substituted aryl)-4-aminopicolinates and their use as herbicides” (priority 2006, published 2007)

Columns and labels:
[1] = test system: lambsquarter (Chenopodium album); test: Postemergence herbicidal activity; assay type: in vivo; settings: Chenopodium album, post-emergence, 336 h, post-emergent, 140 g ai/ha, after 14 days; read-out: % Control CHEAL
In short: (§1)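 Compounds were applied postemergence by track sprayer delivering 187 L/ha, using a mixed organic/aqueous carrier containing crop oil concentrate and surfactant; solvent-blank sprays served as controls. Test plants were at the first to second true leaf stage after 7-21 days' greenhouse growth, were sub-irrigated after treatment, and were evaluated by probit analysis.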

[2] = test system: redroot pigweed (Amaranthus retroflexus); test: Postemergence herbicidal activity; assay type: in vivo; settings: Amaranthus retroflexus, post-emergence, 336 h, post-emergent, 140 g ai/ha, after 14 days; read-out: % Control AMARE
In short: as §1

[3] = test system: velvetleaf (Abutilon theophrasti); test: Postemergence herbicidal activity; assay type: in vivo; settings: Abutilon theophrasti, post-emergence, 336 h, post-emergent, 140 g ai/ha, after 14 days; read-out: % Control ABUTH
In short: as §1

Echinochloa crus-galli = test: Herbicidal activity in transplanted paddy rice; assay type: in vivo; settings: paddy water application, after 3 weeks; for pest or weed control at 17.5 g/ha: 17.5 g ai/ha; for pest or weed control at 70 g/ha: 70 g ai/ha
Experimental: (§2) Weed seeds or nutlets of the desired test plant species were planted in puddled soil (mud) prepared by mixing a non-sterilized mineral soil (28 percent silt, 18 percent clay, and 54 percent sand, with a pH of about 7.3 to 7.8 and an organic matter content of about 1.0 percent) and water at a ratio of 100 kg of soil to 19 L of water. The prepared mud was dispensed in 250 mL aliquots into 480 mL non-perforated plastic pots with a surface area of 91.6 square centimeters leaving a headspace of 3 centimeters in each pot. […] Seedlings at the second or third leaf stage of growth were transplanted into 650 mL of mud contained in 960 mL non-perforated plastic pots with a surface area of 91.6 square centimeters 4 days prior to herbicide application. The paddy was created by filling the 3 centimeter headspace of the pots with water. When required to ensure good germination and healthy plants, a fungicide treatment and/or other chemical or physical treatment was applied. The plants were grown for 4-14 days in a greenhouse with an approximate 14 hour photoperiod which was maintained at about 29° C. during the day and 26° C. during the night. Nutrients were added as Osmocote (17:6:10, N:P:K+minor nutrients) at 2 g per pot. Water was added on a regular basis to maintain the paddy flood, and supplemental lighting was provided with overhead metal halide 1000-Watt lamps as necessary. The plants were employed for testing when they reached the second or third true leaf stage. A weighed amount, determined by the highest rate to be tested, of each test compound was placed in a 120 mL glass vial and was dissolved in 20 mL of acetone to obtain concentrated stock solutions. […] Application rates of ½×, ¼×, ⅛× and 1/16× of the high rate were obtained by injecting an appropriate amount of the stock solution into the aqueous layer of the paddy. Control plants were treated in the same manner with the solvent blank. The treated plants and control plants were placed in a greenhouse as described above and water was added as needed to maintain a paddy flood.

Cyperus difformis = test: Herbicidal activity in transplanted paddy rice; assay type: in vivo; settings: paddy water application, after 3 weeks; for pest or weed control at 17.5 g/ha: 17.5 g ai/ha; for pest or weed control at 70 g/ha: 70 g ai/ha
Experimental: as §2

Scirpus juncoides = test: Herbicidal activity in transplanted paddy rice; assay type: in vivo; settings: paddy water application, after 3 weeks; for pest or weed control at 17.5 g/ha: 17.5 g ai/ha; for pest or weed control at 70 g/ha: 70 g ai/ha
Experimental: as §2

Monochoria vaginalis = test: Herbicidal activity in transplanted paddy rice; assay type: in vivo; settings: paddy water application, after 3 weeks; for pest or weed control at 17.5 g/ha: 17.5 g ai/ha; for pest or weed control at 70 g/ha: 70 g ai/ha
Experimental: as §2

[4] = test system: rice (Orysa sativa var. Japonica); test: Herbicidal activity in transplanted paddy rice; assay type: in vivo; settings: transplant rice (crop), paddy water application, after 3 weeks; for pest or weed control at 17.5 g/ha: 17.5 g ai/ha; for pest or weed control at 70 g/ha: 70 g ai/ha
Experimental: as §2

[5] = test system: lambsquarter (Chenopodium album); test: Preemergence herbicidal activity; assay type: in vivo; settings: Chenopodium album, pre-emergence, 480 h; pre-emergent, 140 g ai/ha, after 20-22 days; read-out: % Control CHEAL
In short: (§3)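 Seeds sown in 70:30 loam (pH about 8.1, about 1.5% organic matter) and sand mix, then sprayed preemergence at 187 L/ha with a track sprayer; controls received solvent blank. Pots kept in greenhouse, about 15 h photoperiod, about 23-29° C. day and 22-28° C. night, top-irrigated.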

[6] = test system: redroot pigweed (Amaranthus retroflexus); test: Preemergence herbicidal activity; assay type: in vivo; settings: Amaranthus retroflexus, pre-emergence, 480 h; pre-emergent, 140 g ai/ha, after 20-22 days; read-out: % Control AMARE
In short: as §3

[7] = test system: velvetleaf (Abutilon theophrasti); test: Preemergence herbicidal activity; assay type: in vivo; settings: Abutilon theophrasti, pre-emergence, 480 h; pre-emergent, 140 g ai/ha, after 20-22 days; read-out: % Control ABUTH
In short: as §3

[8] = Echinochloa crus-galli, 504 h, read-out: % Control ECHCG
[9] = Cyperus difformis, 504 h, read-out: % Control CYPDI
[10] = Schoenoplectiella juncoides, 504 h, read-out: % Control SCPJU
[11] = Pontederia vaginalis, 504 h, read-out: % Control MOOVA

melting point | SMILES | pest or weed control at 140 g/ha [1] | pest or weed control at 140 g/ha [2] | pest or weed control at 140 g/ha [3] | pest or weed control at 70 g/ha (Echinochloa crus-galli; [8]) | pest or weed control at 70 g/ha (Cyperus difformis; [9]) | pest or weed control at 70 g/ha (Scirpus juncoides; [10]) | pest or weed control at 70 g/ha (Monochoria vaginalis; [11]) | pest or weed control at 70 g/ha ([4]; Oryza sativa, 504 h) | further results
145 to 146 °C | COC(=O)c1nc(-c2ccc(Cl)c(C(F)F)c2F)cc(N)c1Cl [Compound 4, 4-Amino-3-chloro-6-(4-chloro-2-fluoro-3-difluoromethylphenyl)pyridine-2-carboxylic acid methyl ester] | 85% | 100% | 100% |  |  |  |  |  | pest or weed control at 17.5 g/ha (Echinochloa crus-galli; [8]): 0%; pest or weed control at 17.5 g/ha (Cyperus difformis; [9]): 95%; pest or weed control at 17.5 g/ha (Scirpus juncoides; [10]): 70%; pest or weed control at 17.5 g/ha (Monochoria vaginalis; [11]): 100%; pest or weed control at 17.5 g/ha ([4]; Oryza sativa, 504 h): 0%
 | CCCCOC(=O)c1nc(-c2ccc(Cl)c(OC)c2Cl)cc(N)c1Cl [Compound 89, 4-Amino-3-chloro-6-(2,4-dichloro-3-methoxyphenyl)pyridine-2-carboxylic acid, butyl ester] |  |  |  | 85% | 100% | 90% | 100% | 0% | 
154 to 155 °C | COC(=O)c1nc(-c2ccc(Br)c(OC)c2Cl)cc(N)c1Cl [Compound 52, 4-Amino-6-(4-bromo-2-chloro-3-methoxyphenyl)-3-chloropyridine-2-carboxylic acid, methyl ester] | 95% | 100% | 100% | 60% | 100% | 95% | 99% | 0% | pest or weed control at 140 g/ha [5]: 90%; pest or weed control at 140 g/ha [6]: 100%; pest or weed control at 140 g/ha [7]: 100%
 | CCOC(=O)c1nc(-c2ccc(Cl)c(OC)c2F)cc(N)c1Cl [Compound 86, 4-amino-3-chloro-6-(4-chloro-2-fluoro-3-methoxyphenyl)-pyridine-2-carboxylic acid, ethyl ester] | 100% | 100% | 100% | 25% | 100% | 95% | 100% | 10% | 
 | CCCCOC(=O)c1nc(-c2c(F)cc(Cl)c(OC)c2F)cc(N)c1Cl [Compound 88, 4-Amino-3-chloro-6-(4-chloro-2,6-difluoro-3-methoxyphenyl)pyridine-2-carboxylic acid, butyl ester] |  |  |  | 100% | 100% | 100% | 100% | 10% | 
139 to 141 °C | COC(=O)c1nc(-c2ccc3c(c2F)OCO3)cc(N)c1Cl [Compound 46, 4-Amino-3-chloro-6-(2-fluoro-3,4 methylenedioxyphenyl)pyridine-2-carboxylic acid methyl ester] | 95% | 100% | 100% |  |  |  |  |  | pest or weed control at 35 g/ha (Echinochloa crus-galli; Echinochloa crus-galli, 504 h, 35 g ai/ha, read-out: % Control ECHCG): 20%; pest or weed control at 35 g/ha (Cyperus difformis; Cyperus difformis, 504 h, 35 g ai/ha, read-out: % Control CYPDI): 100%; pest or weed control at 35 g/ha (Scirpus juncoides; Schoenoplectiella juncoides, 504 h, 35 g ai/ha, read-out: % Control SCPJU): 100%; pest or weed control at 35 g/ha (Monochoria vaginalis; Pontederia vaginalis, 504 h, 35 g ai/ha, read-out: % Control MOOVA): 100%; pest or weed control at 35 g/ha ([4]; Oryza sativa, 504 h, 35 g ai/ha): 0%
 | COC(=O)c1nc(-c2ccc(Cl)c(CF)c2F)cc(N)c1Cl [Compound 5, 4-Amino-3-chloro-6-(4-chloro-2-fluoro-3-fluoromethylphenyl)pyridine-2-carboxylic acid methyl ester] | 90% | 35% | 100% | 20% | 100% | 90% | 100% | 0% | 
132 to 133 °C | CCOc1c(Cl)ccc(-c2cc(N)c(Cl)c(C(=O)OC)n2)c1Cl [Compound 7, 4-Amino-3-chloro-6-(2,4-dichloro-3-ethoxyphenyl)pyridine-2-carboxylic acid methyl ester] | 95% | 90% | 100% | 100% | 100% | 85% | 100% | 10% | 
169 to 170 °C (dec.) | CC(F)c1c(Cl)ccc(-c2cc(N)cc(C(=O)O)n2)c1Cl (stereo not shown) [Compound 125, 4-Amino-6-[2,4 dichloro-3-(1-fluoroethyl)phenyl]pyridine-2-carboxylic acid] |  |  |  | 100% | 100% | 100% | 100% | 5% | pest or weed control at 140 g/ha [5]: 100%; pest or weed control at 140 g/ha [6]: 100%; pest or weed control at 140 g/ha [7]: 100%
 | CCN(CC)CC.COc1c(Cl)ccc(-c2cc(N)c(Cl)c(C(=O)O)n2)c1Cl [Compound 136, 4-Amino-3-chloro-6-(2,4 dichloro-3-methoxyphenyl)pyridine-2-carboxylic acid, triethyl amine salt] |  |  |  |  |  |  |  |  | % Control ECHCG (Echinochloa crus-galli; 35 g ai/ha): 15%; % Control CYPDI (Cyperus difformis; 35 g ai/ha): 100%; % Control SCPJU (Scirpus juncoides; 35 g ai/ha): 80%; % Control MOOVA (Monochoria vaginalis; 35 g ai/ha): 100%; % Control ORYSA ([4]; 35 g ai/ha): 0%
154 to 156 °C | CCOc1c(Cl)ccc(-c2cc(N)c(Cl)c(C(=O)OC)n2)c1F [Compound 41, 4-amino-3-chloro-6-(4-chloro-2-fluoro-3-ethoxyphenyl)-pyridine-2-carboxylic acid methyl ester] | 98% | 85% | 95% |  |  |  |  |  | pest or weed control at 17.5 g/ha (Echinochloa crus-galli; [8]): 50%; pest or weed control at 17.5 g/ha (Cyperus difformis; [9]): 100%; pest or weed control at 17.5 g/ha (Scirpus juncoides; [10]): 90%; pest or weed control at 17.5 g/ha (Monochoria vaginalis; [11]): 100%; pest or weed control at 17.5 g/ha ([4]; Oryza sativa, 504 h): 10%; pest or weed control at 140 g/ha [5]: 90%; pest or weed control at 140 g/ha [6]: 50%; pest or weed control at 140 g/ha [7]: 80%
